Laboratory results reported in article PMC5903252 (British Journal of Clinical Pharmacology, 2018).
Entries after “also recorded” stand apart in the source; their conditions may differ.

How the values were obtained:
aPTT = assay: Activated partial thromboplastin time; format: in vivo, human; settings: for Mean aPTT (± SEM) / aPTT % Change from baseline: immediately prior to the end of infusion
PT/INR = assay: Prothrombin time/international normalized ratio; format: in vivo, human; settings: part A and part B
[1] = Safety and tolerability, adverse events in healthy subjects; format: in vivo, human
Renal safety assessment = format: in vivo, human
rabbit models = settings: preclinical; cited from earlier work
[2] = Plasma pharmacokinetics of BMS-962212 after IV infusion; settings: human, in vivo
[3] = part A 2-h IV infusion 1.5 mg h^−1
[4] = part A 2-h IV infusion 4 mg h^−1
[5] = part A 2-h IV infusion 10 mg h^−1
[6] = part A 2-h IV infusion 25 mg h^−1
[7] = part B 5-day IV infusion 1 mg h^−1, Japanese subjects
[8] = part B 5-day IV infusion 1 mg h^−1, non-Japanese subjects
[9] = part B 5-day IV infusion 3 mg h^−1, Japanese subjects
[10] = part B 5-day IV infusion 3 mg h^−1, non-Japanese subjects
[11] = part B 5-day IV infusion 9 mg h^−1, Japanese subjects
[12] = part B 5-day IV infusion 9 mg h^−1, non-Japanese subjects
[13] = part B 5-day IV infusion 20 mg h^−1, Japanese subjects
[14] = part B 5-day IV infusion 20 mg h^−1, non-Japanese subjects
[15] = part A panel 1, 1.5 mg h^−1 2-h IV infusion, peak at 12 h after initiation

For CN1CCN(c2cccc3c2CCN(C(=O)/C=C/c2c(-n4cnnn4)ccc(Cl)c2F)[C@@H]3C(=O)Nc2ccc(C(=O)O)cc2)C(=O)C1 [BMS‐962212], the “Mean aPTT (± SEM)” value (aPTT; [3]) was 45.8 ± 2.5 s, the “aPTT % Change from baseline” value (aPTT; [3]) was 35% and the “Mean aPTT (± SEM)” value (aPTT; [4]) was 49.2 ± 2.6 s. The “aPTT % Change from baseline” value (aPTT; [4]) was 51%, the “Mean aPTT (± SEM)” value (aPTT; [5]) was 53.0 ± 4.2 s and the “aPTT % Change from baseline” value (aPTT; [5]) was 81%. The “Mean aPTT (± SEM)” value (aPTT; [6]) was 61.3 ± 3.8 s, the “aPTT % Change from baseline” value (aPTT; [6]) was 94% and the “maximum mean aPTT change from baseline” value (aPTT; part B 20 mg h^−1) was 92%. For the same compound, the “Mean aPTT (± SEM)” value (aPTT; [7]) was 37.7 ± 2.0 s, the “aPTT % Change from baseline” value (aPTT; [7]) was 31% and the “Mean aPTT (± SEM)” value (aPTT; [8]) was 42.4 ± 1.8 s. The “aPTT % Change from baseline” value (aPTT; [8]) was 31%, the “Mean aPTT (± SEM)” value (aPTT; [9]) was 46.1 ± 1.2 s and the “aPTT % Change from baseline” value (aPTT; [9]) was 47%. The “Mean aPTT (± SEM)” value (aPTT; [10]) was 44.0 ± 1.9 s, the “aPTT % Change from baseline” value (aPTT; [10]) was 49% and the “Mean aPTT (± SEM)” value (aPTT; [11]) was 52.0 ± 1.3 s. For the same compound, the “aPTT % Change from baseline” value (aPTT; [11]) was 63%, the “Mean aPTT (± SEM)” value (aPTT; [12]) was 52.6 ± 6.8 s and the “aPTT % Change from baseline” value (aPTT; [12]) was 76%. The “Mean aPTT (± SEM)” value (aPTT; [13]) was 63.0 ± 4.9 s, the “aPTT % Change from baseline” value (aPTT; [13]) was 92% and the “Mean aPTT (± SEM)” value (aPTT; [14]) was 57.2 ± 4.0 s. The “aPTT % Change from baseline” value (aPTT; [14]) was 83%, the “time to maximal effect on aPTT after initiation of the IV infusion” value (aPTT; part B, day 1) was “approximately 2 h” and the PT/INR change (PT/INR) was “did not change; also recorded: no effect on PT/INR”. For the same compound, the tolerability ([1]; 2-h and 5-day IV infusions, healthy subjects) was “well tolerated”, the “AE frequency: ecchymosis” value ([1]; BMS-962212 groups) was 1.4% and the “AE frequency: flatulence” value ([1]; BMS-962212 groups) was 1.4%. For the same compound, the “AE frequency: headache” value ([1]; BMS-962212 groups) was 2.9%, the “AE frequency: infusion site pain or irritation” value ([1]; BMS-962212 groups) was 5.9% and the “AE frequency: nausea” value ([1]; BMS-962212 groups) was 2.9%. For the same compound, the “AE frequency: upper respiratory tract infection” value ([1]; BMS-962212 groups) was 2.9%, the “frequency of AEs” value ([1]; Japanese subjects) was 17.6% and the “subjects reporting AEs” value ([1]; all subjects assigned to BMS-962212 (12 of 68)) was 17.6%. For the same compound, the maximum tolerated dose ([1]; no dose-limiting AEs observed) was “not established”, the “frequency of AEs” value ([1]; non-Japanese subjects) was 29.4% and the “subjects reporting AEs” value ([1]; part A, subjects assigned to BMS-962212 (four of 34)) was 11.7%. For the same compound, the “subjects reporting AEs” value ([1]; part B, subjects assigned to BMS-962212 (eight of 34)) was 23.5%, the bleeding ([1]; parts A and B) was “no signs of bleeding” and the “deaths or serious AEs” value ([1]; parts A and B) was “No deaths or serious AEs were reported”. The “iohexol plasma clearance (GFR)” value (Renal safety assessment; panel 1A, 1.5 mg h^−1 2-h IV infusion, day −2 vs day 1, and vs placebo) was “No clinically relevant differences”, the “serum creatinine mean increase” value (Renal safety assessment; [15]) was 0.28 mg/dL and the “serum creatinine median increase” value (Renal safety assessment; [15]) was 0.35 mg/dL. For the same compound, the “mean percentage decrease in eGFR (based on serum creatinine)” value (Renal safety assessment; part A panel 1, 1.5 mg h^−1, 12 h postdose) was −22.58%, the “antithrombotic efficacy and haemostasis” value (rabbit models) was “shows antithrombotic efficacy at doses which preserve haemostasis” and the Tmax [2] was 1 to 2 h. It also gave a half-life ([2]; 1 mg, t 1/2, part B 1 mg h^−1, Japanese ethnicity (n = 4), mean (CV%)) of 7.32 h, a half-life ([2]; 1 mg, t 1/2, part B 1 mg h^−1, Non-Japanese ethnicity (n = 4), mean (CV%)) of 5.3 h and a half-life ([2]; 3 mg, t 1/2, part B 3 mg h^−1, Japanese ethnicity (n = 4), mean (CV%)) of 6.42 h. It also gave a half-life ([2]; 3 mg, t 1/2, part B 3 mg h^−1, Non-Japanese ethnicity (n = 4), mean (CV%)) of 6.05 h, a half-life ([2]; 9 mg, t 1/2, part B 9 mg h^−1, Japanese ethnicity (n = 4), mean (CV%)) of 8.28 h and a half-life ([2]; 9 mg, t 1/2, part B 9 mg h^−1, Non-Japanese ethnicity (n = 4), mean (CV%)) of 8.32 h. It also gave a half-life ([2]; 20 mg, t 1/2, part B 20 mg h^−1, Japanese ethnicity (n = 4), mean (CV%)) of 8.28 h, a half-life ([2]; 20 mg, t 1/2, part B 20 mg h^−1, Non-Japanese ethnicity (n = 4), mean (CV%)) of 7.23 h and an AUC(0-inf) ([2]; iv, 1 mg h^−1) of 6380 ng·h/mL. The AUC(0-t) ([2]; iv, 1 mg h^−1) was 6300 ng·h/mL, the Cmax ([2]; iv, 1 mg h^−1) was 58.3 ng/mL and the Tmax ([2]; iv, 1 mg h^−1) was 24 h. The clearance ([2]; iv, 1 mg h^−1, CL, part B 5-day IV infusion 1 mg h^−1, geometric mean (CV%)) was 314 mL/min, the Vd ([2]; iv, 1 mg h^−1, Vz, part B 5-day IV infusion 1 mg h^−1, geometric mean (CV%)) was 188 L and the half-life ([2]; iv, 1 mg h^−1, t1/2, part B 5-day IV infusion 1 mg h^−1, geometric mean (CV%)) was 6.25 h. For the same compound, the AUC(0-inf) ([2]; iv, 1.5 mg h^−1) was 180 ng·h/mL, the AUC(0-t) ([2]; iv, 1.5 mg h^−1) was 122 ng·h/mL and the Cmax ([2]; iv, 1.5 mg h^−1) was 81.9 ng/mL. For the same compound, the Tmax ([2]; iv, 1.5 mg h^−1) was 1.5 h.
